Data on 29 compounds can be found in patent publication US11008334B2, “Compositions and methods for treating cancer” (The Regents of the University of California, priority 2012, dated 2021).

This assay concerns the target T1, K-RasG12C (1-169) (Homo sapiens, UniProt P01116, G12C).
T1 construct: Un-tagged recombinant K-Ras G12C (1-169) at 4 μM in Buffer A; hexahistidine (cleaved yes); made in house; host or cells: Escherichia coli BL21 (DE)
As to the kind of experiment: Mass spectrometric screen for extent of covalent labeling. The following applies: for percent covalent labeling at 10 µM: 10 micromolar; for Labeling % (10 micM) 24h: 10 micM compound, (plate) or (single) measurement. Format: binding. How it is done: Un-tagged recombinant K-Ras G12C (1-169) at 4 μM in Buffer A was reacted with inhibitors at 200 μM or 10 μM (2% DMSO final). At 2, 6, and 24 hrs, 10 μL aliquots were removed and the reactions were stopped by addition of 1 μL 2% formic acid. The extent of modification was determined by mass spectrometry.

[1] abbreviates: 2 h, 2 hrs, read-out: Percent reduction in activity of compound at 10 micromolar relative to control (no compound), 2 hrs.
Setting [2] is: 6 h, 6 hrs, read-out: Percent reduction in activity of compound at 10 micromolar relative to control (no compound), 6 hrs.
Where [3] appears, read: 24 h, 24 hrs, read-out: Percent reduction in activity of compound at 10 micromolar relative to control (no compound), 24 hrs.

The structures appear in SMILES notation. Where two headings read alike, the source gives them in different places.

`C=CC(=O)NC1CCN(C(=O)COc2ccc(Cl)cc2Cl)CC1` [JO-01-171]: the percent covalent labeling at 10 µM was no more than 5% under setting [1], no more than 5% under setting [2] and no more than 5% under setting [3].
With `C=CC(=O)N1CCN(C(=O)COc2ccc(Cl)cc2Cl)CC1` [JO-01-172], the percent covalent labeling at 10 µM under setting [1] was no more than 5%, the percent covalent labeling at 10 µM under setting [2] was no more than 5% and the percent covalent labeling at 10 µM under setting [3] is no more than 5%.
For the compound `C=CS(=O)(=O)NC1CCN(C(=O)CSc2ccc(Cl)cc2Cl)CC1` [JO-02-26], the percent covalent labeling at 10 µM by setting is: under setting [1], no more than 5%; under setting [2], no more than 5%; under setting [3], 5 to 20%.
For the compound `C=CS(=O)(=O)NC1CCN(C(=O)COc2ccc(Cl)cc2Cl)CC1` [JO-02-31A], the “Labeling % (10 micM) 24h” value is “++ (plate) (5% < ++ <=20%)”. Further, the percent covalent labeling at 10 µM under setting [1] was no more than 5%. Moreover, the percent covalent labeling at 10 µM under setting [2] was no more than 5%. Moreover, for the setting “Table 5”, the “Labeling % (10 micM) 24h” value is given as “++ (plate) (5% < ++ <=20%)”.
Turning to `C=CS(=O)(=O)NC1CCN(C(=O)CSc2ccc(Cl)cc2C)CC1` [JO-02-31B], the percent covalent labeling at 10 µM by setting is: under setting [1], no more than 5%; under setting [2], no more than 5%; under setting [3], 5 to 20%.
Take `C=CS(=O)(=O)NC1CCN(C(=O)CSc2ccc(Cl)c3ccccc23)CC1` [JO-02-31C]: the percent covalent labeling at 10 µM runs as follows: under setting [1], no more than 5%; under setting [2], no more than 5%; under setting [3], 20 to 40%.
As for `C=CS(=O)(=O)NC1CCN(C(=O)CSc2c(Cl)cccc2Cl)CC1` [JO-02-31D], the percent covalent labeling at 10 µM under setting [1] was no more than 5%, the percent covalent labeling at 10 µM under setting [2] is no more than 5% and the percent covalent labeling at 10 µM under setting [3] was no more than 5%.
In the case of `C=CS(=O)(=O)NCCNC(=O)COc1ccc(Cl)cc1Cl` [JO-02-36A], the percent covalent labeling at 10 µM was no more than 5% under setting [1], no more than 5% under setting [2] and no more than 5% under setting [3].
As to `C=CS(=O)(=O)NCCCNC(=O)COc1ccc(Cl)cc1Cl` [JO-02-36B], the percent covalent labeling at 10 µM under setting [1] is no more than 5%, the percent covalent labeling at 10 µM under setting [2] was no more than 5% and the percent covalent labeling at 10 µM under setting [3] is no more than 5%.
Consider `C=CC(=O)NCCNC(=O)COc1ccc(Cl)cc1Cl` [JO-02-37A], for which the percent covalent labeling at 10 µM reads like this: under setting [1], no more than 5%; under setting [2], no more than 5%; under setting [3], no more than 5%.
For `C=CC(=O)NCCCNC(=O)COc1ccc(Cl)cc1Cl` [JO-02-37B], the percent covalent labeling at 10 µM is no more than 5% under setting [1], no more than 5% under setting [2] and no more than 5% under setting [3].
As to `C=CS(=O)(=O)Nc1cc(-c2cccs2)n[nH]1` [JO-02-38B], the percent covalent labeling at 10 µM reads like this: under setting [1], no more than 5%; under setting [2], no more than 5%; under setting [3], no more than 5%.
Turning to `C=CS(=O)(=O)NC1CCN(C(=O)c2cc3cc(Cl)ccc3[nH]2)CC1` [JO-02-49A], the percent covalent labeling at 10 µM is no more than 5% under setting [1], no more than 5% under setting [2] and no more than 5% under setting [3].
In the case of `C=CS(=O)(=O)NC1CCN(C(=O)c2cc3cc(F)ccc3[nH]2)CC1` [JO-02-49B], the percent covalent labeling at 10 µM under setting [1] was no more than 5%, the percent covalent labeling at 10 µM under setting [2] is no more than 5% and the percent covalent labeling at 10 µM under setting [3] was no more than 5%.
Consider `C=CS(=O)(=O)NC1CCN(C(=O)c2cc3cc(OC)ccc3[nH]2)CC1` [JO-02-49C], for which the percent covalent labeling at 10 µM is no more than 5% under setting [1], no more than 5% under setting [2] and no more than 5% under setting [3].
Consider `C=CS(=O)(=O)N1CCC(NC(=O)COc2ccc(Cl)cc2Cl)CC1` [JO-02-55], for which the percent covalent labeling at 10 µM runs as follows: under setting [1], no more than 5%; under setting [2], no more than 5%; under setting [3], 5 to 20%.
`C=CS(=O)(=O)NCC(=O)NC1CCN(C(=O)COc2ccc(Cl)cc2Cl)CC1` [JO-02-56A]: the “Labeling % (10 micM) 24h” value is “++++ (plate) (40% < ++++ <=60%)”. For the same compound, the percent covalent labeling at 10 µM under setting [1] was no more than 5%. For the same compound, the percent covalent labeling at 10 µM under setting [2] was no more than 5%. Besides, the percent covalent labeling at 10 µM under setting [3] was 40 to 60%. For the same compound, the “Labeling % (10 micM) 24h” value (Table 5) is “++++ (plate) (40% < ++++ <=60%)”.
For `C=CS(=O)(=O)NCC(=O)N1CCC(NC(=O)COc2ccc(Cl)cc2Cl)CC1` [JO-02-56B], the percent covalent labeling at 10 µM is, setting by setting: under setting [1], no more than 5%; under setting [2], no more than 5%; under setting [3], 5 to 20%.
`O=C(NC1CCN(C(=O)COc2ccc(Cl)cc2Cl)CC1)C1CO1` (centres unmarked) [JO-02-72]: the percent covalent labeling at 10 µM was no more than 5% under setting [1], no more than 5% under setting [2] and no more than 5% under setting [3].
With `C=CS(=O)(=O)N1CC2CN(C(=O)COc3ccc(Cl)cc3Cl)CC2C1` (centres unmarked) [JO-02-74A], the percent covalent labeling at 10 µM by setting is: under setting [1], no more than 5%; under setting [2], no more than 5%; under setting [3], 20 to 40%.
For the compound `C=CS(=O)(=O)N1CCC2(CCN(C(=O)COc3ccc(Cl)cc3Cl)C2)C1` (centres unmarked) [JO-02-74B], the percent covalent labeling at 10 µM runs as follows: under setting [1], no more than 5%; under setting [2], no more than 5%; under setting [3], 5 to 20%.
As for `C=CS(=O)(=O)N1CCC2(CN(C(=O)COc3ccc(Cl)cc3Cl)C2)C1` [JO-02-74C], the percent covalent labeling at 10 µM under setting [1] was no more than 5%, the percent covalent labeling at 10 µM under setting [2] was no more than 5% and the percent covalent labeling at 10 µM under setting [3] lay within 5 to 20%.
As for `O=C(COc1ccc(Cl)cc1Cl)N1CCC(NCC2CO2)CC1` (centres unmarked) [JO-02-77A], the percent covalent labeling at 10 µM by setting is: under setting [1], no more than 5%; under setting [2], no more than 5%; under setting [3], no more than 5%.
On to `C=CS(=O)(=O)N1CCC2(CC1)CN(C(=O)COc1ccc(Cl)cc1Cl)C2` [JO-02-112A], for which the percent covalent labeling at 10 µM is, setting by setting: under setting [1], no more than 5%; under setting [2], no more than 5%; under setting [3], 5 to 20%.
Take `C=CS(=O)(=O)C1CCC2(CC1)CCN(C(=O)COc1ccc(Cl)cc1Cl)C2` (centres unmarked) [JO-02-112B]: the percent covalent labeling at 10 µM reads like this: under setting [1], no more than 5%; under setting [2], no more than 5%; under setting [3], 5 to 20%.
As for `C=CS(=O)(=O)NCC1CCN(C(=O)COc2ccc(Cl)cc2Cl)CC1` [JO-02-112C], the percent covalent labeling at 10 µM runs as follows: under setting [1], no more than 5%; under setting [2], no more than 5%; under setting [3], no more than 5%.
On to `C=CS(=O)(=O)N1CCN(C(=O)COc2ccc(Cl)cc2Cl)CC1` [JO-02-112D], for which the “Labeling % (10 micM) 24h” value was “+++ (plate) (20%< +++ <=40%)”. For the same compound, the percent covalent labeling at 10 µM under setting [1] was no more than 5%. Under setting [2], the percent covalent labeling at 10 µM is no more than 5%. Moreover, the percent covalent labeling at 10 µM under setting [3] is 20 to 40%. Also, the “Labeling % (10 micM) 24h” value (Table 5) is on record as “+++ (plate) (20%< +++ <=40%)”.
For `C=CS(=O)(=O)NC1CCN(C(=O)COc2ccc(Cl)cc2)CC1` [JO-02-115A], the percent covalent labeling at 10 µM runs as follows: under setting [1], no more than 5%; under setting [2], no more than 5%; under setting [3], no more than 5%.
`C=CS(=O)(=O)NC1CCN(C(=O)C(C)Oc2ccc(Cl)cc2Cl)CC1` (centres unmarked) [JO-02-115B]: the percent covalent labeling at 10 µM under setting [1] was no more than 5%, the percent covalent labeling at 10 µM under setting [2] is no more than 5% and the percent covalent labeling at 10 µM under setting [3] was no more than 5%.
